Measurements from article PMC9436075, “A structural basis for the functional differences between the cytosolic and plastid phosphoglucose isomerase isozymes” (PLoS ONE, 2022).

Columns and labels:
TaPGIc = biological target: T1, TaPGIc (Triticum aestivum, UniProt Q1PBI3); assay: PGI activity inhibition, dose-response; type: biochemical; details: read-out: IC50E4P
T1 construct: gene GPI; cytosolic PGI, CTD 510-567, HLHM 444-466; homodimer
T1 sequence (Q1PBI3 1-567): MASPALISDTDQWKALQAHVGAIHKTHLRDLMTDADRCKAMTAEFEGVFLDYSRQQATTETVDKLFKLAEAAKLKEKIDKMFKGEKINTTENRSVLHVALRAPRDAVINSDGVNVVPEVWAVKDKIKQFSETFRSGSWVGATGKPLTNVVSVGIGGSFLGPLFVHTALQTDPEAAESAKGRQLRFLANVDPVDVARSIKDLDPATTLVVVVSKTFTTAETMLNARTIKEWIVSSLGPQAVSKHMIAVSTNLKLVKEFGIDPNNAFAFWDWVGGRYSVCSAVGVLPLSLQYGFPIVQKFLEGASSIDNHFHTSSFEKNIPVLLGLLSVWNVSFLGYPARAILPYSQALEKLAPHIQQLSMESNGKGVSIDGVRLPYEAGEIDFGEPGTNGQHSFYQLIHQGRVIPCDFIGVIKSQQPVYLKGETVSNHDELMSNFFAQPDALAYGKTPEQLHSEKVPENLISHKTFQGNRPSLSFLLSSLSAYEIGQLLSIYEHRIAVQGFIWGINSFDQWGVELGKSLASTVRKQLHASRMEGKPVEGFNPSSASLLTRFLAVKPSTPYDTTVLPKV

TaPGIp = biological target: T2, TaPGIp (Triticum aestivum, UniProt A0A3B6LNA8); assay: PGI activity inhibition, dose-response; type: biochemical; details: read-out: IC50E4P
T2 construct: gene LOC123112261; plastid PGI, CTD 467-557, transit peptide probably removed; homodimer
T2 sequence (A0A3B6LNA8 64-620): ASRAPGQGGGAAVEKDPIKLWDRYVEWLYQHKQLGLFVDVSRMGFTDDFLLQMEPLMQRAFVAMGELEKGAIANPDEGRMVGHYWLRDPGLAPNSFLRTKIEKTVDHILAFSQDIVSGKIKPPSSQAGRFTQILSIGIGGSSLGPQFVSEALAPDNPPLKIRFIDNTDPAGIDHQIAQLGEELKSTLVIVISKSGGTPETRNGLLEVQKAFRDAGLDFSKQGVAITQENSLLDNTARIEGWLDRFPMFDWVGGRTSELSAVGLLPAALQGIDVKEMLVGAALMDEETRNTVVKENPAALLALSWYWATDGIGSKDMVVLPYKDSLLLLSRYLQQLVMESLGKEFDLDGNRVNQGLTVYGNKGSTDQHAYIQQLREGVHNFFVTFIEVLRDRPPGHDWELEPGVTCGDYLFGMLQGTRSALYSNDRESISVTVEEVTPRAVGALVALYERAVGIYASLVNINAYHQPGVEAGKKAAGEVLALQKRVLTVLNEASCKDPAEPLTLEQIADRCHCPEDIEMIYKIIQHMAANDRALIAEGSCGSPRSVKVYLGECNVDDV

Structure (SMILES): O=C[C@H](O)[C@H](O)COP(=O)(O)O [E4P, erythrose 4-phosphate]
- IC50 (TaPGIc): 130 µM
- IC50 (TaPGIp): 760 µM
